Like-named read-outs stand apart in the source and are kept apart here. Ends that are not written are not given here.
Assays:
tubulin = test: Fluorescence-based tubulin polymerization assay (MPA; enhancement for paclitaxel, inhibition for vinblastine); type: biochemical
Outline: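 Tubulin polymerisation was followed by fluorescence (ex 360/em 405 nm) with 1 mg/ml BSA in all assays. For paclitaxel conjugates, glycerol was omitted. Parent drugs and conjugates were tested at 0.75, 1.5, 3 and 10 micromolar final, and values come from the linear range of the dose responses.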

MCF-7 breast carcinoma = test: Cytotoxicity assay (monolayer), MCF-7; type: cell-based; details: MCF7, ML (monolayer), read-out: MCF7 (EC50 Ave) ML;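 further: cells treated 72 h with 6-8 compound doses versus DMSO vehicle controls, EC50 fitted by 4-parameter dose-response curves, averaged across all tests and lots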
[1] = tested on: HT-29 colorectal carcinoma; test: Cytotoxicity assay (monolayer), HT-29; type: cell-based; details: HT29, ML (monolayer), read-out: HT29 (EC50 Ave) ML;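 further: monolayer cultures tested in triplicate, compound exposure for three days against DMSO vehicle controls, EC50 fitted from dose-response curves and averaged across all tests and lots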
HUVEC = test: Cytotoxicity assay (monolayer), HUVEC; type: cell-based; details: ML (monolayer), read-out: HUVEC (EC50 Ave) ML
[2] = tested on: Normal human foreskin fibroblasts (HFF); test: cells; details: Fibroblast
MCF-7 cells [3] = test: cells; details: Homo sapiens
HT-29 cells [4] = test: cells; details: Homo sapiens
[5] = Serum stability in RPMI1640 medium containing 10% fetal bovine serum; type: in vitro ADME; details: for remaining at 4 h, 10 μM / remaining at 8 h, 10 μM / remaining at 24 h, 10 μM / remaining at 72 h, 10 μM / half-life at 10 μM: bovine; for remaining at 4 h, 10 μM: read-out: Relative Percent Remaining at 4 hr; for remaining at 8 h, 10 μM: read-out: Relative Percent Remaining at 8 hr; for remaining at 24 h, 10 μM: read-out: Relative Percent Remaining at 24 hr; for remaining at 72 h, 10 μM: read-out: Relative Percent Remaining at 72 hr; for half-life at 10 μM: read-out: T½ (converted)
Experimental: The stability of conjugates was measured in RPMI1640 cell culture medium containing 10% fetal bovine serum. The serum-containing medium was pre-warmed at 37° C. for 3 min prior to addition of test articles. Test articles, prepared in DMSO as 5 mM stocks, were added to the cell culture media to a final concentration of 10 μM. Aliquots ([…]) were withdrawn in triplicate at 0, 4, 8, 24 and 72 hours and combined with the same volume of ice-cold acetonitrile to terminate the reaction. The mixture was centrifuged at 2,000×g for 10 minutes. One part of the supernatant was mixed with four parts of deionized water to bring down the percentage of organic solvent. The diluted samples were then assayed by LC/MS for the test article. The natural log of the percent remaining was plotted versus time. A linear fit was used to determine the rate constant. The fit was truncated after the percent of remaining test article was less than 10%. The elimination half-lives associated with the disappearance of test articles were determined to compare their relative stability. The assays were carried out by Absorption Systems (Exton, Pa.).

[6] = tested on: Normal human foreskin fibroblasts (HFF)
MCF-7 cells [7] = tested on: MCF-7 cells
HT-29 cells [8] = tested on: HT-29 cells
[9] = tested on: tumor cells vs normal cells; test: Cytotoxic selectivity index (normal cells in monolayer vs tumor cells in soft agar)
Tie-2 = Tie-2 (Homo sapiens, UniProt Q02763); details: Deng et al. 2001; read-out: Km as substrate for Tie-2; cited from earlier work
Tie-2, sequence (Q02763 23-1124, species assumed): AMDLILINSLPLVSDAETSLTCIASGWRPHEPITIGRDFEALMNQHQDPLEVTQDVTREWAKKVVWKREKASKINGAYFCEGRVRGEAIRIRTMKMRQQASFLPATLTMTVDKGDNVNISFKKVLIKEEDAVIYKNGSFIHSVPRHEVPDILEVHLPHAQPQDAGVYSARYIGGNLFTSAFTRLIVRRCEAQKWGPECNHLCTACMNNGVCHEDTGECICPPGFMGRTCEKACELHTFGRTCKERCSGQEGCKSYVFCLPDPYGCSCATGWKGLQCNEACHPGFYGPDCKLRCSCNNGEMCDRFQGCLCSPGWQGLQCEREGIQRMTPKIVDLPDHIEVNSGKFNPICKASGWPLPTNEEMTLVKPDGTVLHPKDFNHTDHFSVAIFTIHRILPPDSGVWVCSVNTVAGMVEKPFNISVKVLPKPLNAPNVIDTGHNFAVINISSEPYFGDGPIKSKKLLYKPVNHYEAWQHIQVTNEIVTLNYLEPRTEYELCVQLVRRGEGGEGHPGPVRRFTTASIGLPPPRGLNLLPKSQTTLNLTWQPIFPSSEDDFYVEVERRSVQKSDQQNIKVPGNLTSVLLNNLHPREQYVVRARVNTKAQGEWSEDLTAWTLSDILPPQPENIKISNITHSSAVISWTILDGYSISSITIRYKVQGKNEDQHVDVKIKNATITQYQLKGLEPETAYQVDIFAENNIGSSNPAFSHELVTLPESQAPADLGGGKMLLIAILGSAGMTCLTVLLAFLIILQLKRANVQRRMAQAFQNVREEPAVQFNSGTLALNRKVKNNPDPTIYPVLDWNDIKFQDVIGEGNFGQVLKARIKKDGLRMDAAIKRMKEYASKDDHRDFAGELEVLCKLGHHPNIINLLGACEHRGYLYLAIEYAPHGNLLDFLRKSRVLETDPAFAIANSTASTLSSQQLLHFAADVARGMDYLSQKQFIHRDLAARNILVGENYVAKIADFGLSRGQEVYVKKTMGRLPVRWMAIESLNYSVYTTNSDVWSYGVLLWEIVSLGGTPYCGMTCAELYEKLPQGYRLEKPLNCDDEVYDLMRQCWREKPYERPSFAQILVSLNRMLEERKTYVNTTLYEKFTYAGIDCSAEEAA

Met kinase = Met kinase (Homo sapiens, UniProt P08581); details: Hays and Watowich 2003; read-out: Km as substrate for Met kinase; cited from earlier work
Met kinase, sequence (P08581 25-1390): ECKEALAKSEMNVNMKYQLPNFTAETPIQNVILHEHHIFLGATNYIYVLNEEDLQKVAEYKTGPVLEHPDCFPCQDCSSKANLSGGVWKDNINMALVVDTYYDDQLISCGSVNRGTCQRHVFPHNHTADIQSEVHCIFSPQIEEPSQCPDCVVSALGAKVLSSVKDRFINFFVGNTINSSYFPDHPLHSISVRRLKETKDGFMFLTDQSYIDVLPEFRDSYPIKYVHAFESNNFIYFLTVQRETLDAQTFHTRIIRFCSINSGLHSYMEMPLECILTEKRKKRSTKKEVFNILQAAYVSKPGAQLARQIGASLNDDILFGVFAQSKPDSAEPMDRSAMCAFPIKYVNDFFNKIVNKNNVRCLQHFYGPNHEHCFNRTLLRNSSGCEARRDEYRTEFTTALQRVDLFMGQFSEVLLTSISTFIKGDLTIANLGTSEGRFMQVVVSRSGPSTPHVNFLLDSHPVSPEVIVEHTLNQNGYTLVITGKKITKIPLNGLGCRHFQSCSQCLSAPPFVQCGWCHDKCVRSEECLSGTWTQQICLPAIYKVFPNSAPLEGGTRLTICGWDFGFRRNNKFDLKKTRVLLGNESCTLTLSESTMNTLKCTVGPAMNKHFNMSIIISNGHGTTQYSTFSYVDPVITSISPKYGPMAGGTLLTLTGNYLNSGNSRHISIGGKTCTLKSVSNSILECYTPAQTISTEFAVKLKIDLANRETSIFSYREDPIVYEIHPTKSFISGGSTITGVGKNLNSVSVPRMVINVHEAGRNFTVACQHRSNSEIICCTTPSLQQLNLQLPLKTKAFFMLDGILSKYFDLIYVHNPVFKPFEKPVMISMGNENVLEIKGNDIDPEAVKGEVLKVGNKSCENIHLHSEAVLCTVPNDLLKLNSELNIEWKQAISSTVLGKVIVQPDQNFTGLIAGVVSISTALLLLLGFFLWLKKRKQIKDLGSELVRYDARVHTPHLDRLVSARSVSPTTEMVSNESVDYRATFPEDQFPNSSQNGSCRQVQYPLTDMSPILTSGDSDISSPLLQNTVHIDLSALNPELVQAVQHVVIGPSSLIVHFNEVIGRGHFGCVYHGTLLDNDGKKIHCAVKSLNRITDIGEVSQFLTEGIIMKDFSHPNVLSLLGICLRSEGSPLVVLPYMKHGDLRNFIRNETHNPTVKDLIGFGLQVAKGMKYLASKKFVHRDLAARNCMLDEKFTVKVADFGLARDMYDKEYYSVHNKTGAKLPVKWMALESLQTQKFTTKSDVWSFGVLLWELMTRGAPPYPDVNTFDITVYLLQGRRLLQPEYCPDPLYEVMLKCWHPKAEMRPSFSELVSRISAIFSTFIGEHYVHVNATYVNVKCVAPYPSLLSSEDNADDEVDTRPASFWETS

in vitro = details: human
Human Src = target: T1, Human Src (Homo sapiens, UniProt P12931); test: Src kinase assay (PKLight ATP utilization, substrate phosphorylation as % of parent peptide); type: biochemical
T1 construct: purchased Upstate (Charlottesville, Va.) 14-326
T1 sequence (P12931 whole entry): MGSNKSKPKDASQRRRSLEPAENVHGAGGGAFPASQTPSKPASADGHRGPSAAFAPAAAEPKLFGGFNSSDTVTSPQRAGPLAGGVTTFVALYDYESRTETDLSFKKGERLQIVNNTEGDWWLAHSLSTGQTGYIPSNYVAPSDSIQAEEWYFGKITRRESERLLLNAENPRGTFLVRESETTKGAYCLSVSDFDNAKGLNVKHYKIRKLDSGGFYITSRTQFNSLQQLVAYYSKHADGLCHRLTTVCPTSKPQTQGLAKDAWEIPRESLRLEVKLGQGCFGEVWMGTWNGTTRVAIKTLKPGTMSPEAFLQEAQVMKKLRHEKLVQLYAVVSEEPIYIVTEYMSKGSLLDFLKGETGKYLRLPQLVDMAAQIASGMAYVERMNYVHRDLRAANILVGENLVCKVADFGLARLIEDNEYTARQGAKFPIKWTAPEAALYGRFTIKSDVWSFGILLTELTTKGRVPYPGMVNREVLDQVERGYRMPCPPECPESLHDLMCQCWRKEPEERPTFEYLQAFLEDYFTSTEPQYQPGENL
Outline: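 Recombinant human Src or Akt phosphorylated peptide or drug–peptide conjugate substrates (25, 50, 100 μM) at 30° C for 2–5 hours, in Tris-HCl pH 7.5 buffer with MgCl2 and ATP. ATP use was read by luciferase luminescence against no-substrate and no-ATP controls. Phosphorylation was taken from the linear range and expressed as % of the parent peptide.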

Akt = Akt (Homo sapiens, UniProt P31749); details: Akt peptide substrates, Alessi et al. 1996; cited from earlier work
Akt, sequence (P31749 whole entry): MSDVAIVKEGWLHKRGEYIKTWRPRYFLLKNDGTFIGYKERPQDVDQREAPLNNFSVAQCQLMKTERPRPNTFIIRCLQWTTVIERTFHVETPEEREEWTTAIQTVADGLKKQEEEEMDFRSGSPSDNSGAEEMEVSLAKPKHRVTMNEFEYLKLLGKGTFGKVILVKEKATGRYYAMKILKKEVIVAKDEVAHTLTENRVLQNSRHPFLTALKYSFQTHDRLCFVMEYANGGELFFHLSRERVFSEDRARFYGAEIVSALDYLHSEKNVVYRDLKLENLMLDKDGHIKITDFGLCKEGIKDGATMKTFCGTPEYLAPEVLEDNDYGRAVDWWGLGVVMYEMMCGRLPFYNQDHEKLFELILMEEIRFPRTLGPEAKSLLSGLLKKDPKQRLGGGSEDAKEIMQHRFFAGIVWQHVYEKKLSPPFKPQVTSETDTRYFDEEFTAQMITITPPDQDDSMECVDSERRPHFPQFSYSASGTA

[10] = MCF7, read-out: MCF7 (EC50 Ave) SA
[11] = HT-29, read-out: HT29 (EC50 Ave) SA
[12] = read-out: HFF (EC50 Ave) ML, HFF, ML (monolayer)
[13] = read-out: HFFMonolayer EC50, HFF normal cells, monolayer, 72 hours, mean ± SD
[14] = read-out: MCF7 (EC50 Ave) SA, MCF7, SA (soft agar)
[15] = read-out: MCF-7 Soft Agar EC50, MCF-7 tumor cells, soft agar, 10-14 days, mean ± SD
[16] = read-out: HT29 (EC50 Ave) SA, HT29, SA (soft agar)
[17] = read-out: HT-29 Soft Agar EC50, HT-29 tumor cells, soft agar, 10-14 days, mean ± SD

Compound: CC(=O)O[C@H]1C(=O)[C@@]2(C)[C@H]([C@H](OC(=O)c3ccccc3)[C@]3(O)C[C@H](OC(=O)[C@H](O)[C@@H](NC(=O)c4ccccc4)c4ccccc4)C(C)=C1C3(C)C)[C@]1(OC(C)=O)CO[C@@H]1C[C@@H]2O [Paclitaxel (PXL)]
- Ave. MPA Act. (tubulin): C (C>80)
- EC50 (MCF-7 breast carcinoma; Homo sapiens): < 0.02 µM
- EC50 ([1]; Homo sapiens, HT-29): < 0.02 µM
- EC50 (HUVEC; Homo sapiens): < 0.02 µM
- EC50 ([2]; read-out: HFF (EC50 Ave) ML): < 0.02 µM
- EC50 (MCF-7 cells [3]; [10]): < 0.02 µM
- EC50 (HT-29 cells [4]; [11]): < 0.02 µM

Compound: CC[C@H](C)[C@H](NC(=O)[C@H](Cc1ccc(O)cc1)NC(=O)OCc1ccccc1)C(=O)N[C@@H](Cc1ccc(O)cc1)C(=O)NCC(=O)N[C@@H](CO)C(=O)N[C@@H](Cc1ccccc1)C(=O)N[C@@H](CCCCN)C(=O)NCCOCCOCCOCCNC(=O)[C@@]1(O)[C@H](O)[C@]2(CC)C=CCN3CC[C@@]4(c5cc([C@@]6(C(=O)OC)C[C@@H]7CN(CCc8c6[nH]c6ccccc86)C[C@](O)(CC)C7)c(OC)cc5N(C)[C@@H]14)[C@@H]32 [CBz-YIYGSFK-PEG(11)-3Am-VBL]
- EC50 (MCF-7 breast carcinoma): > 0.1 µM
- EC50 [1]: > 0.1 µM
- Relative Percent Remaining at 0 hr [5]: 100%
- remaining at 4 h, 10 μM [5]: 88%
- remaining at 8 h, 10 μM [5]: 102%
- remaining at 24 h, 10 μM [5]: 100%
- remaining at 72 h, 10 μM [5]: 61%
- half-life at 10 μM [5]: > 72 h
- EC50 (HUVEC): > 0.1 µM
- EC50 [6, 12]: > 0.1 µM
- EC50 [6, 13]: 0.655 ± 0.186 µM
- EC50 (MCF-7 cells [7]; [14]): > 0.1 µM
- EC50 (MCF-7 cells [7]; [15]): 0.156 ± 0.037 µM
- EC50 (HT-29 cells [8]; [16]): > 0.1 µM
- EC50 (HT-29 cells [8]; [17]): 0.464 ± 0.351 µM
- Cytotoxic Selectivity Index HFF/HT29 [9]: 1.4
- Cytotoxic Selectivity Index HFF/MCF7 [9]: 4.2

Compound: CC[C@H](C)[C@H](NC(=O)[C@H](Cc1ccc(O)cc1)NC(=O)C(C)(C)C)C(=O)N[C@@H](Cc1ccc(O)cc1)C(=O)NCC(=O)N[C@@H](CO)C(=O)N[C@@H](Cc1ccccc1)C(=O)N[C@@H](CCCNC(=N)N)C(=O)NCCCOCCOCCOCCCNC(=O)O[C@H]1C(=O)[C@@]2(C)[C@H]([C@H](OC(=O)c3ccccc3)[C@]3(O)C[C@H](OC(=O)[C@H](O)[C@@H](NC(=O)c4ccccc4)c4ccccc4)C(C)=C1C3(C)C)[C@]1(OC(C)=O)CO[C@@H]1C[C@@H]2O [Pv-YIYGSFR-PEG(13)-10Ca-PXL]
- Ave. MPA Act. (tubulin): B (B=50-80)
- EC50 (MCF-7 breast carcinoma): > 0.1 µM
- EC50 [1]: > 0.1 µM
- Relative Percent Remaining at 0 hr [5]: 100%
- remaining at 4 h, 10 μM [5]: 73%
- remaining at 8 h, 10 μM [5]: 63%
- remaining at 24 h, 10 μM [5]: 63%
- remaining at 72 h, 10 μM [5]: 64%
- half-life at 10 μM [5]: > 72 h
- EC50 (HUVEC): > 0.1 µM
- EC50 [6, 12]: > 0.1 µM
- EC50 [6, 13]: 2.14 µM
- EC50 (MCF-7 cells [7]; [14]): 0.02 to 0.1 µM
- EC50 (MCF-7 cells [7]; [15]): 0.08 ± 0.013 µM
- EC50 (HT-29 cells [8]; [16]): > 0.1 µM
- EC50 (HT-29 cells [8]; [17]): 0.175 ± 0.043 µM
- Cytotoxic Selectivity Index HFF/HT29 [9]: 12.3
- Cytotoxic Selectivity Index HFF/MCF7 [9]: 26.6

Compound: RLVAYEGWV [nine amino acid peptide substrate for Tie-2]
- Km (Tie-2): 119 µM

Compound: CC[C@]1(O)C[C@@H]2CN(CCc3c([nH]c4ccccc34)[C@@](C(=O)OC)(c3cc4c(cc3OC)N(C)[C@H]3[C@@](O)(C(=O)OC)[C@H](OC(C)=O)[C@]5(CC)C=CCN6CC[C@]43[C@@H]65)C2)C1 [Vinblastine (VBL)]
- Ave. MPA Act. (tubulin): C (C>80)
- EC50 (MCF-7 breast carcinoma; Homo sapiens): < 0.02 µM
- EC50 ([1]; Homo sapiens, HT-29): < 0.02 µM
- EC50 (HUVEC; Homo sapiens): < 0.02 µM
- EC50 ([2]; read-out: HFF (EC50 Ave) ML): < 0.02 µM
- EC50 (MCF-7 cells [3]; [10]): < 0.02 µM
- EC50 (HT-29 cells [4]; [11]): < 0.02 µM

Compound: DSDVHVNATYVNVKCVAP [18 amino acid peptide substrate for Met kinase]
- Km (Met kinase): 67 µM

Compound: CC[C@]1(O)C[C@@H]2CN(CCc3c([nH]c4ccccc34)[C@@](C(=O)OC)(c3cc4c(cc3OC)N(C)[C@H]3[C@@](O)(C(=O)OC)[C@H](OC(C)=O)[C@]5(CC)C=CCN6CC[C@]43[C@@H]65)C2)C1 [Vinblastine, reference compound]
- Relative Percent Remaining at 0 hr [5]: 100%
- remaining at 4 h, 10 μM [5]: 95%
- remaining at 8 h, 10 μM [5]: 95%
- remaining at 24 h, 10 μM [5]: 87%
- remaining at 72 h, 10 μM [5]: 67%
- half-life at 10 μM [5]: > 72 h
- EC50 ([2]; 72 h, read-out: HFFMonolayer EC50): 0.0015 ± 0.0005 µM
- EC50 (MCF-7 cells [3]; MCF7, read-out: MCF-7 Soft Agar EC50): 0.007 ± 0.005 µM
- EC50 (HT-29 cells [4]; HT-29, read-out: HT-29 Soft Agar EC50): 0.007 ± 0.007 µM
- selectivity ratio (in vitro): 0.2

Compound: CC[C@H](C)[C@H](NC(=O)[C@H](Cc1ccc(O)cc1)NC(=O)[C@H](CCC(=O)O)NC(C)=O)C(=O)N[C@@H](Cc1ccc(O)cc1)C(=O)NCC(=O)N[C@@H](CO)C(=O)N[C@@H](Cc1ccccc1)C(=O)N[C@@H](CCCCN)C(=O)NCCCOCCOCCOCCCNC(=O)O[C@H]1C(=O)[C@@]2(C)[C@H]([C@H](OC(=O)c3ccccc3)[C@]3(O)C[C@H](OC(=O)[C@H](O)[C@@H](NC(=O)c4ccccc4)c4ccccc4)C(C)=C1C3(C)C)[C@]1(OC(C)=O)CO[C@@H]1C[C@@H]2O
- Average src kinase activity (Human Src): C (C>40)
- Ave. MPA Act. (tubulin): B (B=50-80)
- EC50 (MCF-7 breast carcinoma): > 0.1 µM
- EC50 [1]: > 0.1 µM
- Relative Percent Remaining at 0 hr [5]: 100%
- remaining at 4 h, 10 μM [5]: 95%
- remaining at 8 h, 10 μM [5]: 99%
- remaining at 24 h, 10 μM [5]: 69%
- remaining at 72 h, 10 μM [5]: 22%
- half-life at 10 μM [5]: 32 h
- EC50 (HUVEC): > 0.1 µM
- EC50 [6, 12]: > 0.1 µM
- EC50 (MCF-7 cells [7]; [14]): > 0.1 µM
- EC50 (HT-29 cells [8]; [16]): > 0.1 µM
- selectivity ratio (in vitro): 24.1
- Cytotoxic Selectivity Index HFF/HT29 [9]: 20.5

Compound: RPRTSTF [peptide substrate for Akt from the literature]
- specificity with respect to related MAP kinase and S6 kinase (Akt): exhibit specificity

Compound: RPRAATF [peptide substrate for Akt from the literature]
- specificity with respect to related MAP kinase and S6 kinase (Akt): exhibit specificity
